# In patent US7199159B2, “Use of biguanide derivatives for making a medicine having a wound healing effect” (Centre National de la Recherche Scientifique (C.N.R.S.), priority 2000, dated 2007):
# System: skin wounds reproducing ulceration
# Assay: cicatrization of punch skin wounds (pseudo-ulcer) treated daily with metformin ointment
# Type: in vivo, Zucker fa/fa rats
# Protocol: The efficacy of metformin was tested in vivo on skin wounds reproducing ulceration. The pseudo-ulcer was produced on 14-week-old Zucker fa/fa rats by loss of matter of circular shape 8 mm in diameter made by a “punch”, down to the muscle layer. […] The speed of the cicatrization was evaluated by determining the area of the wounds with a video camera coupled to a computer equipped with image analysis software.
# Furthermore, metformin at a concentration of 1% by weight relative to the lipophilic phase also appears to exert an effect on neovascularizaton.
# The results of the microscopic analysis of histological sections of the wounds are collated in Table 1 below.
structure (smiles),measurement,setting,value
CN(C)C(=N)N=C(N)N [metformin],collagen density in granulation tissue,"FIG. 3, D4",increase in the collagen density
same,cicatrization (area of the wounds by image analysis),"daily treatment, ointment at different metformin concentrations",significant improvement in cicatrization
same,epidermization compared with untreated control animals,different metformin concentrations,acceleration of epidermization
same,closure of the treated wounds vs untreated control wounds,"four metformin concentrations, FIG. 2",closure of the treated wounds is faster than of the untreated control wounds
same,neovascularization (density of blood capillaries on the edges of the wound),"metformin 1%, D5, treated vs control rats",greater density of blood capillaries on the edges of the wound
same,"cicatrizing action, dose-response study","ointment with metformin at 0.02%, 0.1%, and 2%",cicatrizing action for all the concentrations tested
same,speed of maturation of granulation tissue,"rat, in vivo",significantly increases the speed of maturation of granulation tissue
